According to patent US20220273008A1, “PLANT BODY CONTAINING NOVEL STEVIOL GLYCOSIDE” (SUNTORY HOLDINGS LIMITED, priority 2019, published 2022):
Several values for one entry are separate records, joined by “and”; a condition that tells them apart may be missing. Equal values may be shown once.

What was measured:
[1] = Evaluation of sweetness level: choosing the sugar-added sample of equivalent sweetness intensity, trained panelists; format: in vivo, human; conditions: for Sweetness level, Average / Sweetness level, Highest / Sweetness level, Lowest: 48 mg in 400 mL pure water vs sugar samples of Brix 3.0 to 5.0, relative to sugar; for sweetness compared with sugar (in words): in vivo
Protocol: In order to evaluate the sweetness levels of Novel steviol glycosides A and B, samples were prepared by adding sugar to pure water to give Brix of 3.0 to 5.0 in 0.5 increments. Compounds 15 and 17 obtained by the chemical syntheses were used as Novel steviol glycosides A and B, respectively, where 48 mg of each sample was dissolved in 400 mL of pure water to be tested. In addition, samples were also prepared for comparison by dissolving 48 mg of each of Reb.A, Reb.D and Reb.M in 400 mL of pure water.

[2] = Sensory evaluation of taste quality of beverage samples (sweetness on-set, lingering sweet aftertaste, bitterness, lingering bitter aftertaste); format: in vivo, human; conditions: beverage samples in pure water adjusted to Brix 5 in terms of sugar, compared with Reb.A, Reb.D, Reb.M and sugar
Text: (§1) In order to evaluate the taste quality of various steviol glycosides, Reb.A, Reb.D, Reb.M, sugar and Novel steviol glycoside A (Compound 15) were each added to pure water to prepare beverage samples. All of the beverage samples were adjusted to have final sweetness level (Brix) of 5 in terms of sugar (sucrose), and thus the sweetness levels of Reb.A, Reb.D, Reb.M and Novel steviol glycoside A (Compound 15) were 312, 317, 341 and 354, respectively.
(§2) The resulting beverage samples were subjected to sensory evaluation for rating the attributes, which were sweetness on-set, lingering sweet aftertaste, bitterness and lingering bitter aftertaste. Panelists who had been trained about sensory attributes of sweeteners (7 members) evaluated based on the following evaluation criteria. For each evaluation item, the steviol glycosides were scored in 0.5 increments provided that the score of sugar was 3. A higher score represents faster sweetness on-set, shorter lingering sweet aftertaste, less bitterness and shorter lingering bitter aftertaste. The evaluation scores shown in the diagram are the average scores of the scores from the 8 panelists.
as §1, with “glycoside B” for “glycoside A”, “(Compound 17)” for “(Compound 15)”, “were 288, 310, 324” for “were 312, 317, 341”, “and 250,” for “and 354,”
as §2, with “shorter lingering aftertaste. The” for “shorter lingering bitter aftertaste. The”, “from the 6 panelists.” for “from the 8 panelists.”

[3] = background art; cited from earlier work
[4] = evaluation of Novel steviol glycoside A (Table 10), 7 panelists
[5] = evaluation of Novel steviol glycoside B (Table 11)

SMILES	Sweetness level, Average [1, 4]	Sweetness level, Highest [1, 4]	Sweetness level, Lowest [1, 4]	sweetness compared with sugar (in words) [1]	bitterness [2]	Sweetness level, Average [1, 5]	Sweetness level, Highest [1, 5]	Sweetness level, Lowest [1, 5]	sweetness, times the sweetness of sugar [3]	other results
C=C1CC23CCC4C(C)(C(=O)OC5OC(CO)C(O)C(O)C5OC5OCC(O)C(O)C5O)CCCC4(C)C2CCC1(OC1OC(CO)C(O)C(OC2OC(CO)C(O)C(O)C2O)C1OC1OC(CO)C(O)C(O)C1O)C3 (stereo not drawn) [Novel steviol glycoside A]	354 and 354.1	415.8	319.0	sweeter than sugar	less bitterness as compared to other components including sugar					sweetness level higher in average than that of sugar ([1]; average of panelists, 48 mg in 400 mL pure water): about 354 times; lingering bitter aftertaste [2]: shorter lingering bitter aftertaste as compared to other glycosides; lingering sweet aftertaste [2]: less sweetness; bitterness ([2]; listed as Glycoside A): weaker bitterness than other components including sugar; lingering bitter aftertaste ([2]; listed as Glycoside A): less lingering sweet and bitter aftertastes; lingering sweet aftertaste ([2]; listed as Glycoside A): less lingering sweet and bitter aftertastes
C=C1CC23CCC4C(C)(C(=O)OC5OC(CO)C(O)C(OC6OC(CO)C(O)C(O)C6O)C5OC5OC(CO)C(O)C(O)C5O)CCCC4(C)C2CCC1(OC1OC(CO)C(O)C(OC2OC(CO)C(O)C(O)C2O)C1OC1OCC(O)C(O)C1O)C3 (stereo not drawn) [Novel steviol glycoside B]				sweeter than sugar	weaker bitterness than other steviol glycosides					
C=C1C[C@@]23CC[C@H]4[C@@](C)(CCC[C@@]4(C)C(=O)O[C@@H]4O[C@H](CO)[C@@H](O)[C@H](O)[C@H]4O)[C@@H]2CC[C@]1(O[C@@H]1O[C@H](CO)[C@@H](O)[C@H](O[C@@H]2O[C@H](CO)[C@@H](O)[C@H](O)[C@H]2O)[C@H]1O[C@@H]1O[C@H](CO)[C@@H](O)[C@H](O)[C@H]1O)C3 [Reb A, rebaudioside A]	312.0	398.9	243.0			288.3	329.2	239.5	350-450 times	Sweetness level, Average ([1]; evaluation of Novel steviol glycoside A (Table 10), 7 panelists, listed as Reb.A): 312; Sweetness level, Average ([1]; evaluation of Novel steviol glycoside B (Table 11), listed as Reb.A): 288
C=C1C[C@@]23CC[C@H]4[C@@](C)(CCC[C@@]4(C)C(=O)O[C@@H]4O[C@H](CO)[C@@H](O)[C@H](O)[C@H]4O[C@@H]4O[C@H](CO)[C@@H](O)[C@H](O)[C@H]4O)[C@@H]2CC[C@]1(O[C@@H]1O[C@H](CO)[C@@H](O)[C@H](O[C@@H]2O[C@H](CO)[C@@H](O)[C@H](O)[C@H]2O)[C@H]1O[C@@H]1O[C@H](CO)[C@@H](O)[C@H](O)[C@H]1O)C3 [RebD, rebaudioside D]	317.9	398.0	253.5			310.3	393.6	241.1		Sweetness level, Average ([1]; evaluation of Novel steviol glycoside A (Table 10), 7 panelists, listed as Reb.D): 317; Sweetness level, Average ([1]; evaluation of Novel steviol glycoside B (Table 11), listed as Reb.D): 310
C=C1C[C@@]23CC[C@H]4[C@@](C)(CCC[C@@]4(C)C(=O)O[C@@H]4O[C@H](CO)[C@@H](O)[C@H](O[C@@H]5O[C@H](CO)[C@@H](O)[C@H](O)[C@H]5O)[C@H]4O[C@@H]4O[C@H](CO)[C@@H](O)[C@H](O)[C@H]4O)[C@@H]2CC[C@]1(O[C@@H]1O[C@H](CO)[C@@H](O)[C@H](O[C@@H]2O[C@H](CO)[C@@H](O)[C@H](O)[C@H]2O)[C@H]1O[C@@H]1O[C@H](CO)[C@@H](O)[C@H](O)[C@H]1O)C3 [RebM, rebaudioside M]	341.1	352.2	286.0			323.6	373.4	236.5		Sweetness level, Average ([1]; evaluation of Novel steviol glycoside A (Table 10), 7 panelists, listed as Reb.M): 341; Sweetness level, Average ([1]; evaluation of Novel steviol glycoside B (Table 11), listed as Reb.M): 324
C=C1C[C@@]23CC[C@H]4[C@@](C)(CCC[C@@]4(C)C(=O)O[C@@H]4O[C@H](CO)[C@@H](O)[C@H](O)[C@H]4O)[C@@H]2CC[C@]1(O[C@@H]1O[C@H](CO)[C@@H](O)[C@H](O)[C@H]1O[C@@H]1O[C@H](CO)[C@@H](O)[C@H](O)[C@H]1O)C3 [Stevioside]									250-300 times	
